Here are results for one compound from ChEMBL document CHEMBL5058644, “Data for DCP probe JNJ-39758979” (2022).

SMILES strings stand for the structures. Some results are limits rather than exact numbers.

Test [1] concerns the target T1, Histamine H4 receptor (Homo sapiens, UniProt Q9H3N8). The test is described as follows: Binding assay.
Test [2] concerns the target T1, Histamine H4 receptor. The test is described as follows: Cell based cAMP Assays (pA2). The settings on record: read-out: pA2 (converted).

T1 sequence (Q9H3N8 whole entry): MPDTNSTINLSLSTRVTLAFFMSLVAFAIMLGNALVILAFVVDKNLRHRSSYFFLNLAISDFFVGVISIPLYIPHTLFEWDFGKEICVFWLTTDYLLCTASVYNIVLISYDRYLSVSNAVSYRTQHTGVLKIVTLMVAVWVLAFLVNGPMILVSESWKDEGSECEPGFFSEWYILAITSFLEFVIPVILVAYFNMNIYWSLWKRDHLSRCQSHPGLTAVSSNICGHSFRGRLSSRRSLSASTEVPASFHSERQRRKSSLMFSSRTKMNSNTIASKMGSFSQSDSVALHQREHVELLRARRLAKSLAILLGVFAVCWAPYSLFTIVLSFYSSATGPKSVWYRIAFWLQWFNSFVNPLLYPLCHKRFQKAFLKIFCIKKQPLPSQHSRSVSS

The Ki is the dissociation constant of the complex between target and ligand, obtained from inhibition or displacement. A low value points to tighter binding. Take `CN[C@@H]1CCN(c2cc(C(F)(F)F)nc(N)n2)C1`: the Ki on Histamine H4 receptor [1] was > 10 µM (not active). Besides, the Kb at Histamine H4 receptor [2] is listed as > 100 µM (not active).
